Assay results reported in patent US6881705B2, “Fungicidal composition and use of this composition for controlling plant diseases” (Bayer Cropscience S.A., priority 2001, dated 2005).

What was measured:
Geotrichum candidum = experiment: in vitro control of Geotrichum candidum on PDA medium (colony diameter in microtitre plate wells); format: cell-based; settings: 60 ppm in PDA medium; for Radial growth of the fungus (mm): 22° C., untreated control 15 mm; for Efficacy (%): colony diameter versus untreated control
Procedure: This example gives an illustration of the efficacy of a composition according to the invention for controlling Geotrichum candidum, this trial was carried out in vitro. The fungicidal compositions are used in solution at the doses detailed in Table 1. […] 1 day later, a microdrop of an aqueous suspension of Geotrichum candidum spores, supplemented with 400 ppm of Tween 20, is brought to the surface of each well of the microtitre plate. The cultures are then incubated at 22° C., 60% relative humidity, under subdued light until the control culture (without fungicide) has covered the entire surface of the well. The diameter of each colony is then measured and, in comparison with the untreated control, a percentage efficacy is calculated using the following formula: (diameter of the control−diameter of the trial)/diameter of the control×100.

Gloeosporium spp. = experiment: in vivo trial combating Gloeosporium spp. on apples (Golden variety, preventive sprinkling)
Procedure: This example proposes to give an illustration of the efficacy of a composition according to the invention for combating Gloeosporium spp. on apples, this trial was carried out in vivo. The fungicidal compositions are used in solution at the doses detailed in Table 2. Apples of the Golden variety, untreated after harvest, are treated by sprinkling a fungicidal solution up to the run-off limit at the doses described in Table 2 of results (8 apples per product). 6 hours later, the fruit are inoculated by sprinkling an aqueous suspension at 150 000 spores/ml of Gloeosporium spp. obtained from a preculture on PDA medium. This inoculation by sprinkling is carried out up to the run-off limit. The fruit are then stored in the dark at 20° C., 100% relative humidity and the scores for the disease start 3 weeks later, for a period of 2 weeks. The number of fruit affected by rot are counted and, in comparison with the untreated control, a percentage efficacy is calculated using the following formula: […].

Row | SMILES | Radial growth of the fungus (mm) (Geotrichum candidum) | Efficacy (%) (Geotrichum candidum) | Efficacy (%) (Gloeosporium spp.; 375 ppm, sprinkled on Golden apples 6 hours before inoculation, rot versus untreated control) | Efficacy (%) (Gloeosporium spp.; 75 ppm)
1 | C=CCOC(Cn1ccnc1)c1ccc(Cl)cc1Cl (stereo not drawn) [Imazalil, imazalil] | 14 | 7 | −29.2 | –
2 | Cc1cc(C)nc(Nc2ccccc2)n1 [Pyrimethanil, pyrimethanil] | 15 | 0 | – | 14.9
